Structures can show the parent of a compound that is named as a salt. Where two headings read alike, the source gives them in different places.
Legend:
human NTCP [1] = target: T1, human NTCP (Homo sapiens, UniProt Q14973); assay: Screening taurocholate uptake assay (96-well, [14C]taurocholate, 10 µM drug)
T1 sequence (Q14973 1-349): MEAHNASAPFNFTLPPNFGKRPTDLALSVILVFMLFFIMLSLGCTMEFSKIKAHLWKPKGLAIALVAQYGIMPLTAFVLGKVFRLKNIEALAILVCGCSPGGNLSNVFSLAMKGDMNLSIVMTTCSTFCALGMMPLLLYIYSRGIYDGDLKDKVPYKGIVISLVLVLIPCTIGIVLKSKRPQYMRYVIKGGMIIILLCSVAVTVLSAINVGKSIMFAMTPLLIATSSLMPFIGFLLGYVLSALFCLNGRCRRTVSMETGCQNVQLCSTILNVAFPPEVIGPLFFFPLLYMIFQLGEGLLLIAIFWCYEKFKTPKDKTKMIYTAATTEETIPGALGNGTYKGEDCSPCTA

human NTCP [2] = target: T1, human NTCP; assay: Screening fluorescent competitive Myrcludex B-FITC binding assay (96-well, 10 µM drug)
[3] = Prestwick library screen, taurocholate uptake, 10 µM drug
[4] = ranking score beside the functional and binding assay B-scores of the screen
[5] = Prestwick library screen, Myrcludex B-FITC binding, 10 µM drug
[6] = Prestwick library screen, 10 µM drug, B-score of taurocholate uptake
[7] = combined ranking from functional and binding assay B-scores
[8] = Prestwick library screen, 10 µM drug, B-score of Myrcludex B-FITC binding
[9] = combined ranking from functional and binding screening assays
[10] = screen, 10 µM drug, taurocholate uptake
[11] = screen, 10 µM drug, Myrcludex B-FITC binding

| Compound | B-score functional assay (human NTCP [1]; [3]) | Ranking score (human NTCP [1]; [4]) | B-score binding assay (human NTCP [2]; [5]) | B-score functional assay (human NTCP [1]; [6]) | Ranking score (human NTCP [1]; [7]) | B-score binding assay (human NTCP [2]; [8]) | further results |
| --- | --- | --- | --- | --- | --- | --- | --- |
| COC(=O)[C@H]1[C@H]2C[C@@H]3c4[nH]c5cc(OC)ccc5c4CCN3C[C@H]2C[C@@H](OC(=O)c2cc(OC)c(OC)c(OC)c2)[C@@H]1OC [Reserpine] | 0.519 | 842.122 | 0.147 |  |  |  |  |
| COc1ncnc(NS(=O)(=O)c2ccc(N)cc2)c1OC [Sulfadoxine] |  |  |  | 0.522 | 887.31 | 0.336 |  |
| CCCCc1oc2ccccc2c1C(=O)c1cc(I)c(OCCN(CC)CC)c(I)c1 [Amiodarone hydrochloride] | 0.027 | 845.421 | 1.025 |  |  |  |  |
| CCN(CC)CCNC(=O)c1ccc(N)cc1 [Procainamide hydrochloride] | 0.646 | 672.44 | -0.246 |  |  |  |  |
| CN1CCC(=C2c3ccccc3CC(=O)c3sccc32)CC1 [Ketotifen fumarate] |  |  |  |  |  |  | Ranking score (human NTCP [1]; [9]): 425.088; B-score functional assay (human NTCP [1]; [10]): 0.006; B-score binding assay (human NTCP [2]; [11]): -0.838 |
| C[N+](C)(CCOc1ccccc1)Cc1ccccc1.O=C([O-])c1cc2ccccc2cc1O [Bephenium hydroxynaphthoate] |  |  |  |  |  |  | Ranking score (human NTCP [1]; [9]): 452.073; B-score functional assay (human NTCP [1]; [10]): -0.101; B-score binding assay (human NTCP [2]; [11]): -0.482 |
| Cc1ccc(O)c([C@H](CCN(C(C)C)C(C)C)c2ccccc2)c1 [Tolterodine tartrate] | 0.018 | 673.446 | 0.032 |  |  |  |  |
| Cc1onc(-c2c(F)cccc2Cl)c1C(=O)N[C@@H]1C(=O)N2[C@@H]1SC(C)(C)[C@@H]2C(=O)O [Flucloxacillin sodium] |  |  |  | 0.761 | 1024.7 | 1.029 |  |
| O=[N+]([O-])O[C@H]1CO[C@H]2[C@@H]1OC[C@H]2O[N+](=O)[O-] [Isosorbide dinitrate] |  |  |  |  |  |  | B-score functional assay (human NTCP [1]): 2.183; Ranking score (human NTCP [1]): 973.944; B-score binding assay (human NTCP [2]): 0.166 |
| CCN(CC)CCNC(=O)COc1ccc(OC)cc1.Cl [Mefexamide hydrochloride] |  |  |  | 1.015 | 979.142 | 0.456 |  |
| C[N+](C)(C)CCCCCCCCCC[N+](C)(C)C [Decamethonium bromide] |  |  |  |  |  |  | Ranking score (human NTCP [1]; [9]): 433.577; B-score functional assay (human NTCP [1]; [10]): -0.848; B-score binding assay (human NTCP [2]; [11]): 0.021 |
| C[C@]12CC[C@@H]3c4ccc(O)cc4C[C@@H](CCCCCCCCC[S+]([O-])CCCC(F)(F)C(F)(F)F)[C@H]3[C@@H]1CC[C@@H]2O (stereo partly drawn) [Fulvestrant] | 1.208 | 701.076 | -0.303 |  |  |  |  |
| Nc1c2c(nc3ccccc13)CCCC2 [Tacrine hydrochloride] | -0.044 | 757.813 | 0.755 |  |  |  |  |
| CN1CCC(=C2c3ccccc3CCc3sccc32)CC1.O=C(O)CC(O)C(=O)O [Pizotifen malate] | 0.156 | 745.131 | 0.057 |  |  |  |  |
| CC1CC(OC(=O)C(O)c2ccccc2)CC(C)(C)N1C (stereo not drawn) [Eucatropine hydrochloride] |  |  |  | 0.117 | 950.91 | 1.847 |  |
| CCn1cc(C(=O)O)c(=O)c2cnc(N3CCNCC3)nc21 [Pipemidic acid] | -0.002 | 736.261 | 0.325 |  |  |  |  |
| CCN(CC)CC#CCOC(=O)C(O)(c1ccccc1)C1CCCCC1 (stereo not drawn) [Oxybutynin chloride] | 0.163 | 808.614 | 0.285 |  |  |  |  |
| CC[C@@]1(O)C(=O)OCc2c1cc1n(c2=O)Cc2cc3ccccc3nc2-1 [Camptothecine (S,+)] |  |  |  | 0.986 | 879.695 | 0.08 |  |
| O=C([O-])CCNC(=O)c1ccc(/N=N/c2ccc(O)c(C(=O)[O-])c2)cc1.[Na+].[Na+] [Balsalazide Sodium] |  |  |  |  |  |  | Ranking score (human NTCP [1]; [9]): 403.097; B-score functional assay (human NTCP [1]; [10]): -0.35; B-score binding assay (human NTCP [2]; [11]): -0.506 |
| CC(=O)CC(c1ccc([N+](=O)[O-])cc1)c1c(O)c2ccccc2oc1=O (stereo not drawn) [Acenocoumarol] |  |  |  | 0.873 | 950.096 | 0.383 |  |
| CC(C)NC[C@@H](O)COc1ccc(CC(N)=O)cc1 [(R)-(+)-Atenolol] | 0.006 | 655.981 | 0.009 |  |  |  |  |
| CCCCNC(=O)NS(=O)(=O)c1ccc(C)cc1 [Tolbutamide] |  |  |  |  |  |  | Ranking score (human NTCP [1]; [9]): 448.765; B-score functional assay (human NTCP [1]; [10]): 0.082; B-score binding assay (human NTCP [2]; [11]): -0.855 |

| Compound | B-score functional assay (human NTCP [1]; [3]) | Ranking score (human NTCP [1]; [4]) | B-score binding assay (human NTCP [2]; [5]) | B-score functional assay (human NTCP [1]; [6]) | Ranking score (human NTCP [1]; [7]) | B-score binding assay (human NTCP [2]; [8]) | further results |
| --- | --- | --- | --- | --- | --- | --- | --- |
| Nc1ncn([C@@H]2O[C@H](CO)[C@@H](O)[C@H]2O)c(=O)n1 [Azacytidine-5] |  |  |  | 0.011 | 847.665 | 1.257 |  |
| Nc1nc(N)c2nc(-c3ccccc3)c(N)nc2n1 [Triamterene] | 0.708 | 725.193 | -0.121 |  |  |  |  |
| CC[C@H]1OC(=O)[C@H](C)[C@@H](O[C@H]2C[C@@](C)(OC)[C@@H](O)[C@H](C)O2)[C@H](C)[C@@H](O[C@@H]2O[C@H](C)C[C@H](N(C)C)[C@H]2O)[C@](C)(O)C[C@@H](C)CN(C)[C@H](C)[C@@H](O)[C@]1(C)O [Azithromycin] |  |  |  | 0.119 | 972.082 | 2.513 |  |
| CC(N)C(O)c1ccccc1 (stereo not drawn) [Phenylpropanolamine hydrochloride] |  |  |  |  |  |  | B-score functional assay (human NTCP [1]): 0.305; Ranking score (human NTCP [1]): 449.533; B-score binding assay (human NTCP [2]): -0.994 |
| CN(C)[C@@H]1C(O)=C(C(N)=O)C(=O)[C@@]2(O)C(O)=C3C(=O)c4c(O)cccc4[C@@](C)(O)[C@H]3[C@H](O)[C@@H]12 [Oxytetracycline dihydrate] |  |  |  | 0.414 | 958.668 | 1.019 |  |
| CC1NC(=O)NC1=O (stereo not drawn) [Methylhydantoin-5-(L)] | 0.737 | 746.749 | -0.07 |  |  |  |  |
| CC(C(=O)[O-])c1cccc(Oc2ccccc2)c1.CC(C(=O)[O-])c1cccc(Oc2ccccc2)c1.O.O.[Ca+2] (stereo not drawn) [Fenoprofen calcium salt dihydrate] |  |  |  |  |  |  | Ranking score (human NTCP [1]; [9]): 452.388; B-score functional assay (human NTCP [1]; [10]): -0.759; B-score binding assay (human NTCP [2]; [11]): 0.022 |
| Nc1ccc(C(=O)NCC(=O)O)cc1 [Aminohippuric acid] |  |  |  | 1.44 | 1073.5 | 0.866 |  |
| CCCCC(O)c1ccccc1 (stereo not drawn) [Fenipentol] |  |  |  |  |  |  | Ranking score (human NTCP [1]; [9]): 460.361; B-score functional assay (human NTCP [1]; [10]): -0.409; B-score binding assay (human NTCP [2]; [11]): -0.138 |
| C[C@H]1C[C@H]2[C@@H]3CCC4=CC(=O)C=C[C@]4(C)[C@@]3(F)[C@@H](O)C[C@]2(C)[C@@]1(O)C(=O)CO [Betamethasone] | 0.975 | 747.052 | -0.13 |  |  |  |  |
| O=P1(NCCCl)OCCCN1CCCl (stereo not drawn) [Ifosfamide] |  |  |  |  |  |  | Ranking score (human NTCP [1]; [9]): 334.739; B-score functional assay (human NTCP [1]; [10]): 0.023; B-score binding assay (human NTCP [2]; [11]): -1.438 |
| CCC1(C)CC(=O)NC1=O (stereo not drawn) [Ethosuximide] |  |  |  | 1.817 | 1070.41 | 0.697 |  |
| CN1CCC(=C2c3ccccc3C=Cc3ccccc32)CC1 [Cyproheptadine hydrochloride] | -0.111 | 690.33 | 0.492 |  |  |  |  |
| Cc1c(-c2ccccc2)oc2c(C(=O)OCCN3CCCCC3)cccc2c1=O [Flavoxate hydrochloride] | -0.169 | 734.394 | 1.224 |  |  |  |  |
| O=C(O)c1ccccc1C(=O)Nc1ccc(S(=O)(=O)Nc2nccs2)cc1 [Phthalylsulfathiazole] |  |  |  | 1.113 | 1099.94 | 1.374 |  |
| NCc1ccc(S(N)(=O)=O)cc1 [Mafenide hydrochloride] | 0.341 | 703.397 | -0.055 |  |  |  |  |
| CC1=C(C(=O)O)N2C(=O)[C@@H](NC(=O)[C@H](N)c3ccc(O)cc3)[C@H]2SC1 [Cefadroxil] |  |  |  |  |  |  | Ranking score (human NTCP [1]; [9]): 439.805; B-score functional assay (human NTCP [1]; [10]): -0.032; B-score binding assay (human NTCP [2]; [11]): -0.675 |
| Fc1ccc([C@@H]2CCNC[C@H]2COc2ccc3c(c2)OCO3)cc1 [Paroxetine Hydrochloride] |  |  |  | 0.185 | 918.273 | 1.07 |  |
| CCC1NC(=O)c2cc(S(N)(=O)=O)c(Cl)cc2N1 (stereo not drawn) [Quinethazone] | 1.708 | 787.128 | -0.124 |  |  |  |  |
| COc1c(N2C[C@@H]3CCCN[C@@H]3C2)c(F)cc2c(=O)c(C(=O)O)cn(C3CC3)c12 [Moxifloxacin] |  |  |  |  |  |  | Ranking score (human NTCP [1]; [9]): 388.165; B-score functional assay (human NTCP [1]; [10]): 0.4; B-score binding assay (human NTCP [2]; [11]): -1.402 |
| COc1ccc([C@@H]2Sc3ccccc3N(CCN(C)C)C(=O)[C@@H]2OC(C)=O)cc1 [Diltiazem hydrochloride] |  |  |  |  |  |  | Ranking score (human NTCP [1]; [9]): 351.949; B-score functional assay (human NTCP [1]; [10]): -0.552; B-score binding assay (human NTCP [2]; [11]): -0.608 |
